We go through 1 sequence from patent US12565680B2, “Cancer neoantigens and their utilities in cancer vaccines and TCR-based cancer immunotherapy” (THE METHODIST HOSPITAL SYSTEM, priority 2018, dated 2026).

For the assay, the system named is 135TIL. Kind of assay: TCR β CDR3 repertoire analysis. The arrangement: species or system human. The note with it: TCRβ CDR3 profiling. The source says:
To address this issue, PCDHB16 neoantigen-specific CD4^+ T cells were isolated by FACS sorting of PCDHB16-neoantigen T cells from freshly generated bulk T cells after stimulated PCDHB16 neoepitope peptide-pulsed 135EBV-B cells. Using the similar approach, MPG-specific CD8+ T cells were also purified from freshly generated bulk T cells after stimulated MPG neoepitope peptide-pulsed 135EBV-B cells. Genomic DNAs were isolated from the two purified neoantigen-specific T cell populations, as well as the parental bulk T cells, and used as templates for TCR β-chain CDR3 repertoire amplification. […] After the amplicons (from PCDHB16-, MPG-specific T cells and bulk 135TIL) were subjected to deep-sequenced via next-generation sequencing (reads>100,000 per sample), followed by bioinformatic analysis and TCR repertoire alignment. […] The relative TCR sequence frequencies that were identical to those in PCDHB16-specific T cells and MPG-specific T cells were determined in total 135TIL cell population (FIG. 10F). […]
Cytokine Secretion Assay-Detection Kit (MACS Miltenyi Biotec) was used in cell-surface IFN-γ staining based on a commercial protocol. […] Finally cells were washed with cold buffer and ready for flow cytometric analysis. […]

Regarding “ENSPLGTEFPLNYALDLDVGSNNVQ [PCDHB16, immunodominant MHC-II neoantigen of patient #135]”, the “neoantigen-specific TCRs in the total 135TIL TCRs” value was 36%.
